Measured values as given in patent US8026276B2, “Parenteral CCI-779 formulations containing cosolvents, an antioxidant, and a surfactant” (Wyeth LLC, priority 2002, dated 2011).

How the values were obtained:
[1] = test system: histologically diverse tumor cells; details: cited from earlier work
human tumor xenografts = details: nude mice; cited from earlier work
Solubility of CCI-779 = type: physicochemical
Method: A primary obstacle towards the formulation of CCI-779 as a parenteral dosage form is the poor aqueous solubility, which is less than 1 μg/ml. The drug is a non-electrolyte and approaches such as pH adjustment and salt formation are not useful for improving the aqueous solubility. […] These include ethanol, propylene glycol, polyethylene glycol and dimethylacetamide. Two problems or limitations exist with respect to the formulation of CCI-779 in these organic solvents. First, chemical instability has been noted in virtually all solvents. The instability can be due to oxidative degradation of CCI-779 or to cleavage of a lactone bond, resulting in the formation of the ring opened seco-CCI-779. Second, formulations of CCI-779 in organic solvents will precipitate upon dilution with aqueous infusion solutions, such as 0.9% Sodium Chloride Injection or 5% Dextrose Injections, or with blood. This is a primary limitation to the use of water miscible organic solvents, also referred to as cosolvents, when used as vehicles for highly water-insoluble compounds.

[2] = Stability of CCI-779 in solution with chelating agent; type: physicochemical; details: citric acid at less than 0.01% w/v
Excerpt: In some embodiments, components with chelating activity are included in the formulations of the invention as the sole “antioxidant component”. Typically, such metal-binding components, when acting as chelating agents are used in the lower end of the range of concentrations for the antioxidant component provided herein. […] Additionally, such chelating agents may be used in combination with other antioxidants as part of the antioxidant component of the invention. For example, an acceptable formulation may contain both citric acid and d,l-α-tocopherol. Optimal concentrations for the selected antioxidant(s) can be readily determined by one of skill in the art, based upon the information provided herein.

## CO[C@H]1C[C@@H]2CC[C@@H](C)[C@@](O)(O2)C(=O)C(=O)N2CCCC[C@H]2C(=O)O[C@H]([C@H](C)C[C@@H]2CC[C@@H](OC(=O)C(C)(CO)CO)[C@H](OC)C2)CC(=O)[C@H](C)/C=C(\C)[C@@H](O)[C@@H](OC)C(=O)[C@H](C)C[C@H](C)/C=C/C=C/C=C/1C [CCI-779, rapamycin 42-ester with 3-hydroxy-2-(hydroxymethyl)-2-methylpropionic acid]
[1]
  growth of tumor cells in vitro: inhibit the growth
Human tumor xenografts
  activity against human tumor xenografts: has activity
Solubility of CCI-779; ethanol, propylene glycol, polyethylene glycol, dimethylacetamide
  solubility in water-miscible organic solvents: soluble
Solubility of CCI-779; vegetable oils
  solubility in pharmaceutically acceptable vegetable oils: poor solubility
Solubility of CCI-779; water, read-out: aqueous solubility
  solubility: < 1 µg/mL
[2]
  effect of citric acid on stability of CCI-779: enhanced the stability
